Data as given in patent EP4596534A1, “NONCOVALENT SMALL-MOLECULE INHIBITORS OF THE KEAP1-NRF2 INTERACTION” (University of Copenhagen, priority 2024, dated 2025).

Target: T1, human Keap1 Kelch domain (Homo sapiens, UniProt Q14145)
T1 construct: human Keap1 Kelch domain (residue 321-609, UniProt Q14145); made in house; host or cells: Escherichia coli BL21 (DE3) pLysS, pRSET A vector
Test: Heterologous competition fluorescence polarization (FP) binding assay, Cy5-Nrf2 peptide probe
Conditions: mean ± SEM of at least 3 individual measurements; Keap1 Kelch 14 nM, Cy5-Nrf2 probe 3 nM, 4% DMSO
Experimental: The assay was performed in a 1 × HBSTET buffer (10 mM HEPES, 150 mM NaCl, 0.005% Tween20, 3 mM ethylenediaminetetraacetic acid (EDTA), 1 mM TCEP, pH = 7.4) using black flat-bottom 384-well plates (Corning Life Sciences, NY), a volume of 30 µL/well, and a final DMSO concentration of 4% or 8%. The assay plate was spun down to ascertain proper mixing and removal of potential air bubbles and incubated for 10-15 min at room temperature before measuring the FP levels on a Safire2 plate reader (Tecan, Männedorf, Switzerland). The g-factor was adjusted at each experiment so that a series of three blank wells containing probe but no Keap1 Kelch defined the baseline FP value. The Cy5-Nrf2 probe was measured at excitation/emission values of 635:670 nm. The FP values were fitted to the one-site specific binding equation: Y = Bmax × X/(Kd + X), with Bmax being the maximal FP value, X the Keap1 Kelch concentration, and Y the variable FP values. The Kd values were derived from the resulting binding saturation curve as being equal to the Keap1 Kelch concentration, where the curve is half-saturated.
The affinities between nonfluorescent small molecule Keap1 inhibitors and Keap1 Kelch were determined as Ki values in a heterologous competition FP binding assay. […] FP values were fitted to the equation Y = Bottom + (Top- Bottom)/[1 + (10^HillSlope×(log IC50-X))], where X is the logarithmic value of compound concentration. Hereby, the IC50 value was obtained, which together with the Kd value and probe and Keap1 Kelch concentrations was used to calculate the theoretical competitive inhibition constant, the Ki value.^43 Ki values are shown as mean ± SEM (standard error of mean) if based on two or more individual measurements.

T1 sequence (Q14145 321-609): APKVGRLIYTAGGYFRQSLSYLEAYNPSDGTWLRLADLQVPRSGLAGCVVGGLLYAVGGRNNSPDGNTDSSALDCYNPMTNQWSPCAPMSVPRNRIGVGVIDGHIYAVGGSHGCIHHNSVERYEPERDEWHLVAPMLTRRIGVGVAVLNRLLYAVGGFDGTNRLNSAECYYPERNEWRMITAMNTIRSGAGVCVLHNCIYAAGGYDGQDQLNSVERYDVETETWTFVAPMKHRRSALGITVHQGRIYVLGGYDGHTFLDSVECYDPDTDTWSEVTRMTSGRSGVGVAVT

Row | Ki [nM] | Structure (SMILES)
1 | 590 ± 100 | CCOc1ccc(S(=O)(=O)N2CCc3ccc(C(NC(=O)c4cccc5c4-c4ccccc4C5O)C(=O)O)cc3C2)cc1C#N (stereo not shown) [Compound K32, 2-(2-((3-cyano-4-ethoxyphenyl)sulfonyl)-1,2,3,4-tetrahydroisoquinolin-7-yl)-2-(9-hydroxy-9H-fluorene-4-carboxamido)acetic acid]
2 | 170 ± 40 | CCOc1ccc(S(=O)(=O)N2CCc3ccc(C(NC(=O)c4cccc5c4-c4ccccc4C54SCCS4)C(=O)O)cc3C2)cc1C#N (stereo not shown) [Compound K38, 2-(2-((3-cyano-4-ethoxyphenyl)sulfonyl)-1,2,3,4-tetrahydroisoquinolin-7-yl)-2-(spiro[fluorene-9,2'-[1,3]dithiolane]-4-carboxamido)acetic acid]
3 | 930 ± 210 | O=C(O)CC(NC(=O)c1cccc2c1-c1ccccc1C2=O)c1ccc2c(c1)CN(S(=O)(=O)c1ccccc1)CC2 (stereo not shown) [Compound K46, 3-(9-oxo-9H-fluorene-4-carboxamido)-3-(2-(phenylsulfonyl)-1,2,3,4-tetrahydroisoquinolin-7-yl)propanoic acid]
4 | 3600 ± 400 | CCOc1ccc(S(=O)(=O)N2Cc3ccc(C(NC(=O)c4cccc5c4-c4ccccc4C5=O)C(=O)O)cc3C2)cc1C#N (stereo not shown) [Compound K50, 2-(2-((3-cyano-4-ethoxyphenyl)sulfonyl)isoindolin-5-yl)-2-(9-oxo-9H-fluorene-4-carboxamido)acetic acid]
